The nature of data set [1]: Release of interferon from implants incubated in phosphate buffered saline. The settings on record: 30 vol % NaCl/PCL tubing filled with 20 mg α-interferon suspension in SAIB, ends sealed. The data set is classed as physicochemical. The procedure:
Using nitrogen gas as the core feed, a mixture comprising 30 vol % NaCl in PCL was extruded as described above through the outer ring of a coaxial die to form tubing having an overall diameter of about 3 mm. Implants containing α-interferon were prepared from the tubing by filling a short length of tubing with a suspension containing 20 mg of α-interferon in sucrose acetate isobutyrate (SAIB) and sealing the ends of the tube.
The implants, when incubated in phosphate buffered saline, released interferon for several days.

A short description of data set [2]: In vitro dissolution of cromolyn sodium coaxial implants. The conditions noted are these: 50 wt % cromolyn/PCL core, PBS pH 7.4, 37° C. The data set is classed as physicochemical. The procedure: Coaxial rods were produced by operating the two Randcastle extruders simultaneously. The core material (cromolyn/PCL) was fed through the center orifice of the die on the first extruder to form the implant core. […] Individual implants with a diameter of approximately 2 mm were cut to a length of 2 cm. The exposed ends were sealed with the same polymer as the membrane. Cromolyn release was determined in vitro using a simple dissolution test. Individual implants were placed in 4-oz amber jars with 40 mL of buffer (phosphate buffered saline, pH 7.4, with 0.05% sodium azide) and incubated at 37° C. Periodically, aliquots of buffer were removed and replaced with fresh buffer. The cromolyn concentration in each sample was determined by HPLC.

As to α-interferon, the “duration of interferon release” value in data set [1] is reported as “several days”. For the compound `O=C(O)c1cc(=O)c2c(OCC(O)COc3cccc4oc(C(=O)O)cc(=O)c34)cccc2o1` [cromolyn, cromolyn sodium], the “effect of membrane thickness on release of cromolyn” value in data set [2] (30 vol % cromolyn/PCL membrane (pore-forming agent), FIG. 8) is on record as “A thicker polymer membrane causes slower release”. Also, the “release from sealed versus unsealed implant” value in data set [2] (30 vol % lactose/PCL membrane, FIG. 9) is listed as “the unsealed implant releases faster than the sealed”.
